Test results from patent US5132432A, “Chemically reactive pyrenyloxy sulfonic acid dyes” (Molecular Probes, Inc., priority 1989, dated 1992).
Structures can show the parent of a compound that is named as a salt. Blank lines part the entries; values can stand above or below the compound they belong to.

Columns and labels:
[1] = Comparison of spectral properties of reactive dyes, Table 1; format: physicochemical; settings: for ε: at first maximum; for Abs Max: first maximum; for Emission Bandwidth / Emission Bandwidth [cm^-1]: full bandwidth at half peak height; for Quantum Yield: in aqueous solution, grade in words; for % Emission at 514 nm: percent of maximum emission at 514 nm
From the text: A number of dyes have been proposed in the literature that can be excited and detected at wavelengths less than 500 nm. Several chemically reactive fluorophores that can be excited in the near ultraviolet and short wavelength visible region of the spectrum have been described. […] These proposed tracers are derived from naphthalene derivatives such as 5-dimethylaminonaphthalene-1-sulfonic acid (Dansyl) [Weber, Biochem. J. 41:145 (1952); Rinderknecht, Experientin 16:430 (1960)], 3-(isothiocyanato)naphthalene-1,5-disulfonic acid [Braunitzer, et al., Hoppe-Seyler's Z. Physiol. […] Chem. 358:505 (1977)], pyrene derivatives such as pyrene-1-butyric acid (PBA) [Malencik & Anderson, Biochemistry 11:3022 (1972)], 8-isothiocyanatopyrene-1,3,6-trisulfonic acid (IPTS) [Braunitzer,et al., Hoppe-Seyler's Z. Physiol. Chem. 354:1536 (1973)] and 8-hydroxypyrene-1,3,6-trisulfonyl chloride [Wolfbeis, Fresenies Z. Anal. Chem. 320:271 (1985)], stilbene derivatives such as 4-acetamido-4'-isothiocyanatostilbene-2,2'-disulfonic acid (SITS) [Cornelisse & Ploem, J. Histochem. Cytochem. 24:72 (1976)], and coumarin dyes such as 3-carboxy-7-hydroxycoumarin [Baker & Collis, J. Chem. Soc. 1949, S 12 (1949)], 7-hydroxy-4-methylumbelliferone-3-acetic acid (4-MUA) [Khalfan, et al., Biochem. J. 209:265 (1983)], 7-amino-4-methylcoumarin-3-acetic acid (AMCA) [Khalfan, et al., Histochem. J. 18:497 (1986)] and 7-diethylaminocoumarin [Staines, et al. (1988)].

[2] = Solubility in water / aqueous solution; settings: solubility of the reactive form of the dye; grade in words
[3] = Spectral properties (absorption/emission) of new pyrenyloxy sulfonic acid dyes, Table 4; format: physicochemical; settings: 50 mM aqueous potassium phosphate buffer at pH 8.0; for Em Max: uncorrected
Procedure: Stock solutions were prepared by accurately weighing and dissolving 5-10 mg samples of the compounds in 2.000 ml water. A 10 μl aliquot of the stock solution was diluted into 2.00 ml of 50 mM potassium phosphate buffer at pH 8.0. Absorbance solutions were prepared by further diluting 200 μl of the diluted stock solution to 2.000 ml with 50 mM potassium phosphate buffer at pH 8.0. Absorption data was collected on an IBM Model 9420 UV/Visible Spectrophotometer and extinction coefficients were determined by standard Beer's Law calculations.
Uncorrected fluorescence data was obtained on a Perkin-Elmer Model 650-40 Fluorescence Spectrophotometer equipped with a Perkin-Elmer/Hitachi 057 X-Y Recorder using a ten- to twentyfold dilution of the absorbance solutions. Fluorescence of the pyrenyloxy sulfonic acid dyes was determined for the reactive dyes and for their conjugates with model compounds by dissolving the dye at a concentration above 1×10^-8M in an appropriate solvent such as water, methanol, ethanol, or dimethylsulfoxide and measurement of the fluorescence in a suitable instrument, such as a fluorescence spectrometer or fluorescence microscope or flow cytometer. Fluorescence could also be observed for the dyes in solution by visual inspection with illumination by a suitable source that emits light at wavelengths of less than 420 nm.

[4] = Quantum yield relative to quinine sulfate; format: physicochemical; settings: in water
From the text: An estimate of the quantum yield of the dyes relative to quinine sulfate (quantum yield=0.55 in 1N sulfuric acid) was obtained by integrating the emission spectrum of the dye excited at the same wavelength and optical density as the standard.

[5] = physiological range (pH 6 to 8); cited from earlier work
[6] = cited from earlier work
[7] = background statement; cited from earlier work
[8] = second (shorter-wavelength) maximum
[9] = first (longer-wavelength) maximum

- Em. Max. [1]: 442 nm
- ε [1]: 15200 M⁻¹ cm⁻¹
- Abs Max [1]: 354 nm
- Emission Bandwidth [1]: 57 nm
- Emission Bandwidth [cm^-1] [1]: 2858 cm⁻¹
- Quantum Yield [1]: med.
- % Emission at 514 nm [1]: 12 % of max
- Water Solubility [2]: low
Structure (SMILES): Cc1c(CC(=O)O)c(=O)oc2cc(N)ccc12 [AMCA, 7-amino-4-methylcoumarin-3-acetic acid]

Structure (SMILES): O=C(O)COc1cc(S(=O)(=O)[O-])c2ccc3c(S(=O)(=O)[O-])cc(S(=O)(=O)[O-])c4ccc1c2c43.[Na+].[Na+].[Na+] [Compound 2, 1,3,6-Trisulfo-8-pyrenyloxyacetic acid, trisodium salt]
- Emission Band-width [3]: 52 nm
- Emission at 514 nm [3]: 5.8 % of max
- Em Max [3]: 430 nm
- ε ([3]; at first maximum): 27.0 10^3 M^-1 cm^-1
- ε ([3]; at second maximum): 19.8 10^3 M^-1 cm^-1
- Abs Max [3, 8]: 374 nm
- Quantum Yield [4]: greater than 0.90

Structure (SMILES): NCCNC(=O)COc1cc(S(=O)(=O)O)c2ccc3c(S(=O)(=O)O)cc(S(=O)(=O)O)c4ccc1c2c43 [Compound 3, 1,3,6-Trisulfo-8-pyrenyloxyacetamido-1-(2-aminoethane), trisodium salt]
- Emission Band-width [3]: 50 nm
- Emission at 514 nm [3]: 4.9 % of max
- Abs Max [3, 9]: 399 nm

Structure (SMILES): NCCCCCNC(=O)COc1cc(S(=O)(=O)O)c2ccc3c(S(=O)(=O)O)cc(S(=O)(=O)O)c4ccc1c2c43 [Compound 4, 1-(1,3,6-Trisulfo-8-pyrenloxyacetamido)-(5-aminopentane), trisodium salt]
- Emission Band-width [3]: 50 nm
- Emission at 514 nm [3]: 3.9 % of max
- Em Max [3]: 422 nm
- ε ([3]; at first maximum): 27.6 10^3 M^-1 cm^-1
- ε ([3]; at second maximum): 22.8 10^3 M^-1 cm^-1
- Abs Max [3, 8]: 377 nm
- Quantum Yield [4]: greater than 0.90

- Em. Max. [1]: 454 nm
- ε [1]: 19100 M⁻¹ cm⁻¹
- Abs Max [1]: 360 nm
- Emission Bandwidth [1]: 58 nm
- Emission Bandwidth [cm^-1] [1]: 2668 cm⁻¹
- Quantum Yield [1]: med.
- % Emission at 514 nm [1]: 20 % of max
- Water Solubility [2]: low
Structure (SMILES): Cc1c(CC(=O)O)c(=O)oc2cc(O)ccc12 [Compound 4-MUA, 7-hydroxy-4-methylumbelliferone-3-acetic acid]
- sensitivity to solution pH [5]: high sensitivity to solution pH

Structure (SMILES): O=C(COc1cc(S(=O)(=O)O)c2ccc3c(S(=O)(=O)O)cc(S(=O)(=O)O)c4ccc1c2c43)NCCO [Compound 10]
- Emission Band-width [3]: 50 nm
- Emission at 514 nm [3]: 3.3 % of max
- Abs Max [3, 9]: 399 nm
- Abs Max [3, 8]: 377 nm

Structure (SMILES): NNC(=O)COc1cc(S(=O)(=O)O)c2ccc3c(S(=O)(=O)O)cc(S(=O)(=O)O)c4ccc1c2c43 [Compound 11, 1,3,6-Trisulfo-8-pyrenyloxyacethydrazide, free sulfonic acid]
- Emission Band-width [3]: 51 nm
- Abs Max [3, 9]: 399 nm
- Abs Max [3, 8]: 377 nm

Structure (SMILES): N.N.N.NNC(=O)COc1cc(S(=O)(=O)O)c2ccc3c(S(=O)(=O)O)cc(S(=O)(=O)O)c4ccc1c2c43 [Compound 13, 1,3,6-Trisulfo-8-pyrenyloxyacethydrazide, triammonium salt]
- Emission Band-width [3]: 50 nm
- Emission at 514 nm [3]: 3.8 % of max
- Abs Max [3, 9]: 399 nm
- Abs Max [3, 8]: 376 nm

Structure (SMILES): CC(C)(C)OC(=O)N1CCC[C@H]1C(=O)NCCNC(=O)COc1cc(S(=O)(=O)[O-])c2ccc3c(S(=O)(=O)[O-])cc(S(=O)(=O)[O-])c4ccc1c2c43.[Na+].[Na+].[Na+] [Compound 14, N-(1,3,6-Trisulfo-8-pyrenyloxyacetyl)-N'-(N-t-butoxycarbonyl-L-prolyl)-1,2-ethanediamine, trisodium salt]
- Emission Band-width [3]: 49 nm
- Emission at 514 nm [3]: 2.8 % of max
- Em Max [3]: 422 nm
- Abs Max [3, 9]: 399 nm
- Quantum Yield [4]: greater than 0.90

Structure (SMILES): CC(C)(C)OC(=O)N1CCC[C@H]1C(=O)NCCCCCNC(=O)COc1cc(S(=O)(=O)O)c2ccc3c(S(=O)(=O)O)cc(S(=O)(=O)O)c4ccc1c2c43 [Compound 15]
- Emission Band-width [3]: 50 nm
- Emission at 514 nm [3]: 3.0 % of max
- Abs Max [3, 9]: 399 nm
- Abs Max [3, 8]: 377 nm

Structure (SMILES): N#CCCCCCNC(=O)COc1cc(S(=O)(=O)O)c2ccc3c(S(=O)(=O)O)cc(S(=O)(=O)O)c4ccc1c2c43 [Compound 16]
- Emission Band-width [3]: 49 nm
- Emission at 514 nm [3]: 3.0 % of max
- Abs Max [3, 9]: 399 nm
- Abs Max [3, 8]: 377 nm

Structure (SMILES): C=CC(=O)NCCCCCNC(=O)COc1cc(S(=O)(=O)O)c2ccc3c(S(=O)(=O)O)cc(S(=O)(=O)O)c4ccc1c2c43 [Compound 19]
- Emission Band-width [3]: 49 nm
- Emission at 514 nm [3]: 2.9 % of max
- Abs Max [3, 9]: 399 nm

Structure (SMILES): [N-]=[N+]=Nc1ccc(C(=O)NCCCCCNC(=O)COc2cc(S(=O)(=O)[O-])c3ccc4c(S(=O)(=O)[O-])cc(S(=O)(=O)[O-])c5ccc2c3c54)cc1.[Na+].[Na+].[Na+] [Compound 20, N-(1,3,6-Trisulfo-8-pyrenyloxyacetyl)-N'-(4-azidobenzoyl)-1,5-pentanediamine, trisodium salt]
- Emission Band-width [3]: 50 nm
- Emission at 514 nm [3]: 3.5 % of max
- Em Max [3]: 424 nm
- Abs Max [3, 9]: 400 nm

Structure (SMILES): COC(=O)COc1cc(OCC(=O)OC)c2ccc3c(S(=O)(=O)O)cc(S(=O)(=O)O)c4ccc1c2c43 [Compound 21, Dimethyl 1,3-disulfo-6-carboxymethoxy-8-pyrenyloxyacetic acid, disodium salt]
- Emission Band-width [3]: 55 nm
- Emission at 514 nm [3]: 13.0 % of max
- Em Max [3]: 447 nm
- ε ([3]; at first maximum): 24.5 10^3 M^-1 cm^-1
- Abs Max [3, 9]: 396 nm

- Em. Max. [1]: 578 nm
- ε [1]: 4500 M⁻¹ cm⁻¹
- Abs Max [1]: 340 nm
- Quantum Yield [1]: low
- Water Solubility [2]: low
Structure (SMILES): CN(C)c1cccc2c(S(=O)(=O)O)cccc12 [Dansyl, 5-dimethylaminonaphthalene-1-sulfonic acid]

Structure (SMILES): O=S(=O)(O)c1cc(N=C=S)c2ccc3c(S(=O)(=O)O)cc(S(=O)(=O)O)c4ccc1c2c34 [IPTS, 8-isothiocyanatopyrene-1,3,6-trisulfonic acid]
- Em. Max. [1]: 458 nm
- ε [1]: 25600 M⁻¹ cm⁻¹
- Abs Max [1]: 373 nm
- Emission Bandwidth [1]: 78 nm
- Emission Bandwidth [cm^-1] [1]: 3634 cm⁻¹
- Quantum Yield [1]: low
- % Emission at 514 nm [1]: 38 % of max
- Water Solubility [2]: high

Structure (SMILES): O=C(O)CCCc1ccc2ccc3cccc4ccc1c2c34 [PBA, pyrene-1-butyric acid]
- Em. Max. [1]: 377 nm
- ε [1]: 45100 M⁻¹ cm⁻¹
- Abs Max [1]: 341 nm
- Quantum Yield [1]: low
- % Emission at 514 nm [1]: 2 % of max
- Water Solubility [2]: low

Structure (SMILES): O=C1OC2(c3ccc(O)cc3Oc3cc(O)ccc32)c2ccccc21 [fluorescein]
- extinction coefficient ([6]; at absorbance maximum): 75,000 cm^-1 M^-1
- emission onset ([6]; beginning of visible emission): approximately 480 nm

Structure (SMILES): O=S(=O)(Cl)c1cc(O)c2ccc3c(S(=O)(=O)Cl)cc(S(=O)(=O)Cl)c4ccc1c2c34 [hydroxypyrenetrisulfonyl chloride, 8-hydroxypyrene-1,3,6-trisulfonyl chloride]
- sensitivity to solution pH [5]: high sensitivity to solution pH

Structure (SMILES): Cc1c(CC(=O)ON2C(=O)CCC2=O)c(=O)oc2cc(N)ccc12 [succinimidyl ester of AMCA]
- aqueous solubility / lipophilicity [7]: quite lipophilic and insoluble in the aqueous solutions

Structure (SMILES): O=C(CCCc1ccc2ccc3cccc4ccc1c2c34)ON1C(=O)CCC1=O [succinimidyl pyrene-1-butyrate]
- aqueous solubility / lipophilicity [7]: quite lipophilic and insoluble in the aqueous solutions
